Key:
[1] = tested on: Salmonella typhimurium; assay: Mutagenic activity in Salmonella typhimurium TA 100 at 1 to 1000 ug/well after 48 hrs by Ames test in presence of rat liver S9 fraction; format: toxicity, organism-based; conditions: salmonella enterica subsp. enterica serovar typhimurium, s9, 48 h
[2] = tested on: Salmonella typhimurium; assay: Mutagenic activity in Salmonella typhimurium TA 100 at 1 to 1000 ug/well after 48 hrs by Ames test; format: toxicity, organism-based; conditions: salmonella enterica subsp. enterica serovar typhimurium
[3] = tested on: Hepatitis C virus; assay: Antiviral activity against Hepatitis C virus genotype 1b infected in human HuH7 cells after 72 hrs by FRET assay; format: functional, organism-based, Hepacivirus hominis; conditions: Huh-7, 72 h
[4] = tested on: Hepatitis C virus; assay: Antiviral activity against Hepatitis C virus genotype 1a infected in human HuH7 cells after 72 hrs by FRET assay; format: functional, organism-based, Hepacivirus hominis; conditions: subtype 1a, Huh-7, 72 h
[5] = Cytotoxicity against human HuH7 cells infected with HCV genotype 1b after 72 hrs by Alamar blue assay; format: cell-based, Huh-7
[6] = tested on: Bovine viral diarrhea virus 1; assay: Antiviral activity against Bovine viral diarrhea virus infected in human HuH7 cells by luciferase reporter gene assay; format: functional, organism-based; conditions: Bovine viral diarrhea virus isolates and strains, Huh-7
[7] = Metabolic stability in rat microsomes assessed as compound remaining after 10 mins; format: ADME, microsome; conditions: liver microsomes, read-out: Stability
[8] = Permeability of the compound at pH 7.4 by PAMPA; format: physicochemical; conditions: read-out: permeability
[9] = tested on: Hepatitis C virus; assay: Antiviral activity against Hepatitis C virus genotype 4a infected in human HuH7 cells by FRET assay; format: functional, organism-based, Hepacivirus hominis; conditions: Huh-7
[10] = tested on: Hepatitis C virus; assay: Antiviral activity against Hepatitis C virus genotype 3a infected in human HuH7 cells by FRET assay; format: functional, organism-based, Hepacivirus hominis; conditions: Huh-7
[11] = tested on: Hepatitis C virus; assay: Antiviral activity against Hepatitis C virus genotype 1a infected in human HuH7 cells after 5 days by ELISA; format: functional, organism-based, Hepacivirus hominis; conditions: subtype 1a, Huh-7, 120 h
[12] = Plasma concentration in rat at 5 mg/kg, po after 0.17 hrs; format: ADME, organism-based; set-up: dose 5 mg/kg, route oral
[13] = tested on: Hepatitis C virus; assay: Antiviral activity against Hepatitis C virus genotype 1b expressing […] resistant-mutant infected in human HuH7 cells after 72 hrs by FRET assay; format: functional, organism-based, Hepacivirus hominis; conditions: Huh-7, 72 h
[14] = Metabolic stability in human liver microsomes assessed as compound remaining after 10 mins; format: ADME; conditions: read-out: Stability
[15] = tested on: Hepatitis C virus; assay: Antiviral activity against Hepatitis C virus genotype 3a YH infected in human HuH7 cells by FRET assay; format: functional, organism-based, Hepacivirus hominis; conditions: subtype 3a YH, Huh-7
[16] = tested on: Hepatitis C virus; assay: Antiviral activity against Hepatitis C virus genotype 2a J6 infected in human HuH7 cells by FRET assay; format: functional, organism-based, Hepacivirus hominis; conditions: subtype 2a J6, Huh-7
[17] = tested on: Hepatitis C virus; assay: Antiviral activity against Hepatitis C virus genotype 5a infected in human HuH7 cells by FRET assay; format: functional, organism-based, Hepacivirus hominis; conditions: Huh-7
[18] = Clearance in rat at 2 mg/kg, iv; format: ADME, organism-based; set-up: dose 2 mg/kg, route intravenous; conditions: in vivo
[19] = Efflux ratio of permeability from basolateral to apical side over apical to basolateral side in human Caco2 cells; format: ADME, cell-based; conditions: Caco-2
[20] = AUC (4 hrs) in rat at 5 mg/kg, po; format: ADME, organism-based; set-up: time < 4 hr, dose 5 mg/kg, route oral; conditions: plasma
[21] = AUC (24 hrs) in rat at 5 mg/kg, po; format: ADME, organism-based; set-up: time < 24 hr, dose 5 mg/kg, route oral; conditions: plasma
[22] = Oral bioavailability in rat at 5 mg/kg; format: ADME, organism-based; conditions: in vivo
[23] = Drug metabolism in assay medium assessed as parent compound level at 5 uM after 48 hrs by LC/MS analysis; format: physicochemical

EC50 [3] [nM] | EC50 [4] [nM] | EC50 [6] [nM] | EC50 [11] [nM] | Compound | CC50 at 72 h [5] [nM] | further results
– | – | – | – | O=C(Nc1ccc(/C=C/c2ccc(NC(=O)[C@@H]3CCCN3C(=O)Cc3ccccc3)cc2)cc1)[C@@H]1CCCN1C(=O)Cc1ccccc1 | – | Activity [1]: Non-toxic; Activity [2]: Non-toxic
– | – | – | – | Nc1ccc(/C=C/c2ccc(NC(=O)[C@@H]3CCCN3C(=O)Cc3ccccc3)cc2)cc1 | – | Activity [1]: Toxic
429 | – | – | – | O=C(Nc1ccc(-c2cnc(-c3ccc(NC(=O)[C@@H]4CCCN4C(=O)Cc4ccccc4)cc3)o2)cc1)[C@@H]1CCCN1C(=O)Cc1ccccc1 | – | –
5.6 | > 400 | > 10000 | – | O=C(Nc1ccc(C#Cc2ccc(NC(=O)[C@@H]3CCCN3C(=O)Cc3ccccc3)cc2)cc1)[C@@H]1CCCN1C(=O)Cc1ccccc1 | > 10000 | –
0.012 | – | 3440 | 0.049 | COC(=O)N[C@@H](C(=O)N1CCC[C@H]1c1ncc(-c2ccc(-c3ccc(-c4cnc([C@@H]5CCCN5C(=O)[C@@H](c5ccccc5)N(C)C)[nH]4)cc3)cc2)[nH]1)c1ccccc1 | > 9700 | –
0.004 | – | 523 | 14.9 | COC(=O)N[C@@H](C(=O)N1CCC[C@H]1c1ncc(-c2ccc(-c3ccc(-c4cnc([C@@H]5CCCN5C(=O)Cc5ccccc5)[nH]4)cc3)cc2)[nH]1)c1ccccc1 | > 10000 | –
0.011 | 203 | 110 | – | COC(=O)N[C@@H](C(=O)N1CCC[C@H]1c1ncc(-c2ccc(-c3ccc(-c4cnc([C@@H]5CCCN5C(=O)OC(C)(C)C)[nH]4)cc3)cc2)[nH]1)c1ccccc1 | > 10000 | –
102 | 901 | 2760 | – | CC(C)(C)OC(=O)N1CCC[C@H]1c1ncc(-c2ccc(-c3ccc(-c4cnc([C@@H]5CCCN5C(=O)OC(C)(C)C)[nH]4)cc3)cc2)[nH]1 | 9630 | –
< 4.6 | > 100 | > 10000 | – | O=C(Cc1ccccc1)N1CCC[C@H]1c1nc2cc(C#Cc3ccc4nc([C@@H]5CCCN5C(=O)Cc5ccccc5)[nH]c4c3)ccc2[nH]1 | > 10000 | –
0.075 | – | 3420 | 232 | CN(C)[C@@H](C(=O)N1CCC[C@H]1c1nc2cc(C#Cc3ccc4[nH]c([C@@H]5CCCN5C(=O)[C@@H](c5ccccc5)N(C)C)nc4c3)ccc2[nH]1)c1ccccc1 | 6390 | –
> 1000 | – | 412 | > 1000 | O=C(Cc1ccccc1)N1CCC[C@H]1c1nc2cc(C#Cc3ccc4oc([C@@H]5CCCN5C(=O)Cc5ccccc5)nc4c3)ccc2o1 | > 10000 | Drug metabolism [23]: Active
> 1000 | – | 1390 | > 1000 | CN(C)[C@@H](C(=O)N1CCC[C@H]1c1nc2cc(C#Cc3ccc4oc([C@@H]5CCCN5C(=O)[C@@H](c5ccccc5)N(C)C)nc4c3)ccc2o1)c1ccccc1 | 4450 | –
> 1000 | – | 7980 | > 1000 | O=C(Cc1ccccc1)N1CCC[C@H]1c1nc2ccc(C#Cc3ccc4nc([C@@H]5CCCN5C(=O)Cc5ccccc5)oc4c3)cc2o1 | > 10000 | Drug metabolism [23]: Active
677 | 568 | 1570 | – | CN(C)[C@@H](C(=O)N1CCC[C@H]1C(=O)Nc1ccc(-c2cnc(-c3ccc(NC(=O)[C@@H]4CCCN4C(=O)[C@@H](c4ccccc4)N(C)C)cc3)o2)cc1)c1ccccc1 | 6010 | –
< 4.6 | – | 4960 | 973 | CN(C)[C@@H](C(=O)N1CCC[C@H]1c1nc2cc(-c3cnc(-c4ccc5[nH]c([C@@H]6CCCN6C(=O)[C@@H](c6ccccc6)N(C)C)nc5c4)o3)ccc2[nH]1)c1ccccc1 | > 10000 | –
0.16 | 738 | 1160 | – | CN(C)[C@@H](C(=O)N1CCC[C@H]1C(=O)Nc1cccc(-c2cnc(-c3cccc(NC(=O)[C@@H]4CCCN4C(=O)[C@@H](c4ccccc4)N(C)C)c3)o2)c1)c1ccccc1 | 4730 | –
0.39 | 1.6 | 1220 | – | CN(C)[C@@H](C(=O)N1CCC[C@H]1C(=O)Nc1ccc(-c2cnc(-c3cccc(NC(=O)[C@@H]4CCCN4C(=O)[C@@H](c4ccccc4)N(C)C)c3)o2)cc1)c1ccccc1 | 5760 | –
0.33 | 283 | 596 | – | O=C(Cc1ccccc1)N1CCC[C@H]1c1ncc(-c2ccc(-c3ccc(-c4cnc([C@@H]5CCCN5C(=O)Cc5ccccc5)[nH]4)cc3)cc2)[nH]1 | > 10000 | –
0.077 | – | > 370 | 251 | CN(C)C(C(=O)N1CCC[C@H]1C(=O)Nc1ccc(-c2ncc(-c3ccc4[nH]c([C@@H]5CCCN5C(=O)[C@@H](c5ccccc5)N(C)C)nc4c3)o2)cc1)c1ccccc1 (single isomer, unassigned) | > 10000 | –

Compound | EC50 [3] [nM] | EC50 [4] [nM] | EC50 [6] [nM] | EC50 [11] [nM] | CC50 at 72 h [5] [nM] | further results
CN(C)[C@@H](C(=O)N1CCC[C@H]1c1ncc(-c2ccc(-c3ccc(-c4cnc([C@@H]5CCCN5C(=O)[C@@H](c5ccccc5)N(C)C)[nH]4)cc3)cc2)[nH]1)c1ccccc1 | 0.042 | – | 2350 | 0.037 | 5860 | remaining at 10 min [7]: 100%; Papp [8]: 0.7 ×10⁻⁶ cm/s; EC50 [9]: 0.013 nM; EC50 [10]: 0.015 nM; concentration at 0.17 h [12]: 20 nM; EC50 [13]: 233 nM; remaining at 10 min [14]: 100%; EC50 [15]: 3.8 nM; EC50 [16]: 0.032 nM; EC50 [17]: 0.032 nM; clearance [18]: 17.4 mL/min/kg
CN(C)[C@H](C(=O)N1CCC[C@H]1c1ncc(-c2ccc(-c3ccc(-c4cnc([C@@H]5CCCN5C(=O)[C@H](c5ccccc5)N(C)C)[nH]4)cc3)cc2)[nH]1)c1ccccc1 | 5.4 | – | 1270 | 704 | 3610 | –
COC(=O)N[C@@H](C(=O)N1CCC[C@H]1c1nc2cc(C#Cc3ccc4[nH]c([C@@H]5CCCN5C(=O)[C@H](NC(=O)OC)c5ccccc5)nc4c3)ccc2[nH]1)c1ccccc1 | 0.055 | – | > 10000 | 108 | > 10000 | efflux ratio [19]: ≥ 7.2; AUC at 4 h [20]: 0.466 µM·h; AUC at 24 h [21]: 0.539 µM·h; EC50 [13]: > 3330 nM; bioavailability [22]: < 1%; clearance [18]: 1.1 mL/min/kg
CN(C)[C@@H](C(=O)N1CCC[C@H]1c1nc2ccc(C#Cc3ccc4nc([C@@H]5CCCN5C(=O)[C@@H](c5ccccc5)N(C)C)oc4c3)cc2o1)c1ccccc1 | < 4.6 | – | 390 | > 1000 | 2720 | EC50 [13]: > 1000 nM
CN(C)[C@@H](C(=O)N1CCC[C@H]1C(=O)Nc1cccc(-c2ncc(-c3ccc4nc([C@@H]5CCCN5C(=O)[C@@H](c5ccccc5)N(C)C)[nH]c4c3)o2)c1)c1ccccc1 | 0.14 | – | 3090 | 3.5 | 8610 | EC50 [13]: > 1000 nM
COC(=O)N[C@@H](C(=O)N1CCC[C@H]1c1ncc(-c2ccc(-c3ccc(-c4cnc([C@@H]5CCCN5C(=O)[C@H](NC(=O)OC)c5ccccc5)[nH]4)cc3)cc2)[nH]1)c1ccccc1 | 0.0067 | – | 1460 | 0.028 | > 10000 | remaining at 10 min [7]: 100%; EC50 [9]: 0.0057 nM; EC50 [10]: 0.004 nM; EC50 [13]: 166 nM; remaining at 10 min [14]: 100%; EC50 [15]: 4.4 nM; EC50 [16]: 0.023 nM; EC50 [17]: 0.014 nM; clearance [18]: 11.1 mL/min/kg
